Data: US12239719B2, “Fluorochemical targeted therapies” (MT RESEARCH, LLC, priority 2016, dated 2025)

Legend:
[1] = tested on: metastatic pulmonary osteosarcoma; assay: Aerosol treatment of dog with metastatic pulmonary osteosarcoma; assay type: in vivo; conditions: control dogs (n=50), gemcitabine alone
Experimental: A dog with extensive metastatic pulmonary osteosarcoma was treated with 60% perflubron emulsion (PFCE) containing 9 mg/mL gemcitabine (GCB) (PFCE-GCB=1000 mg GCB in 110 mL 60% perflubron emulsion). Aerosolized PFCE-GCB was delivered to the lungs of the dog twice weekly using an AeroTech™ II nebulizer (Biodex Medical Systems, Inc., Shirley, NY).
Treatment was discontinued at 6 months.
Control dogs (n=50) received gemcitabine alone.

[2] = oral (drink); cited from earlier work

Compound | durable tumor eradication [1] | fraction absorbed [2] [%]
Nc1ccn([C@@H]2O[C@H](CO)[C@@H](O)C2(F)F)c(=O)n1 [gemcitabine] | tumors returned in all control cases | 
COC(=O)c1ccc2c(c1)NC(=O)/C2=C(\Nc1ccc(N(C)C(=O)CN2CCN(C)CC2)cc1)c1ccccc1 [nintedanib] |  | 5
